Test results taken from patent US20220401407A1, “REGULATION OF THE SLEEP/WAKE CYCLE USING C[…]” (Demetrix, Inc., priority 2021, published 2022).
Entries after “also recorded” stand apart in the source; their conditions may differ.

What was measured:
Assay type in all cases: cell-based
[1] = target: T1, HCRTR2 (Homo sapiens, UniProt O43614); experiment: PathHunter β-Arrestin GPCR agonist assay, HCRTR2; design: concentration or dose not given beside the values; details: agonist mode; Orexin A as control
T1 sequence (O43614 1-444): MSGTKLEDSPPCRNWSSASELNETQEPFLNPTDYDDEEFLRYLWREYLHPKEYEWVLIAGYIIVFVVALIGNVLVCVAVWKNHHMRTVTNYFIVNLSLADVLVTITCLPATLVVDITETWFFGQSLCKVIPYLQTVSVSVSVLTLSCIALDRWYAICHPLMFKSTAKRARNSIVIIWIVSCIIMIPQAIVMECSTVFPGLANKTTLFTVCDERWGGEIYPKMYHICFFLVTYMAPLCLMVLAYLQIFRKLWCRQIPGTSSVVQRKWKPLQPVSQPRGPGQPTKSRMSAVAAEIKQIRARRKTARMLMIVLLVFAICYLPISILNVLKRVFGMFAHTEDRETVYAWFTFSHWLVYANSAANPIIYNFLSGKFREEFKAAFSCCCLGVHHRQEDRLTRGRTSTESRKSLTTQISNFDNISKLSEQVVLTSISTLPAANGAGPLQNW
Method: (§1) To evaluate the role specific cannabinoid compounds may play on the sleep/wake cycle, a GPCR reactivity assay was performed to determine the reactivity of 19 cannabinoid compounds to the orexin receivers HCRTR1 and HCRTR2. The evaluated cannabinoid compounds were: CBN, THCV, CBDVA, CBG, CBL, CBC, CBDV, CBDA, CBD, CBGA, (+)-CBD, CBG-C4, CBD-C1, CBD-C2, CBGV, CBGA-C4, CBGVA, CBCA, and CBLA. Orexin A was used as the control for HCRTR1 and HCRTR2.
(§2) To perform the GPCR reactivity assay, a commercial GPCR assay, PathHunter® β-Arrestin from Eurofins DiscoverX Products (Fremont, Calif.), was used. […] At activation of the GPCR receptor and recruitment of β-arrestin, complementation of the peptide fragments occurs and restores β-galactosidase activity. The amount of β-galactosidase activity is then measurable using chemiluminescent reagents.
(§3) A total of four assays were run. Agonist assays were run for each of HCRTR1 and HCRTR2 and antagonist assays were run for HCRTR1 and HCRTR2. In each of the two agonist assays, PathHunter® cell lines were removed from a freezer stock and seeded at a volume of 20 μL into white walled, 384-well microplates and incubated at 37° C. Each cell was incubated with a sample to induce a response and then diluted to generate a 5× sample in assay buffer. 5 μL of the 5× sample was then added to cells and incubated at 37° C. for 90 or 180 minutes. The final assay concentration was 1%. The assay signal was generated through addition of 12.5 μL or 15 μL (50% V/V) of a detection reagent cocktail followed by a one hour incubation time at room temperature. Microplates were read following signal generation with a PerkinElmer Envision™ (PerkinElmer Inc., Waltham, Mass.) for chemiluminescent signal detection. Reactivity was analyzed using the CBIS data analysis suite (ChemInnovation, CA) where RLU refers to the raw measured values. The percent activity was then calculated using the formula: % Activity=100%*(mean RLU of test sample−mean RLU of control)/(mean max control ligand−mean RLU of vehicle control).
(§4) For agonist activity, the percent activity is depicted while for antagonist activity, the percent inhibition is depicted.

[2] = target: T2, HCRTR1 (Homo sapiens, UniProt O43613); experiment: PathHunter β-Arrestin GPCR agonist assay, HCRTR1; design: concentration or dose not given beside the values; details: agonist mode; Orexin A as control
T2 sequence (O43613 1-425): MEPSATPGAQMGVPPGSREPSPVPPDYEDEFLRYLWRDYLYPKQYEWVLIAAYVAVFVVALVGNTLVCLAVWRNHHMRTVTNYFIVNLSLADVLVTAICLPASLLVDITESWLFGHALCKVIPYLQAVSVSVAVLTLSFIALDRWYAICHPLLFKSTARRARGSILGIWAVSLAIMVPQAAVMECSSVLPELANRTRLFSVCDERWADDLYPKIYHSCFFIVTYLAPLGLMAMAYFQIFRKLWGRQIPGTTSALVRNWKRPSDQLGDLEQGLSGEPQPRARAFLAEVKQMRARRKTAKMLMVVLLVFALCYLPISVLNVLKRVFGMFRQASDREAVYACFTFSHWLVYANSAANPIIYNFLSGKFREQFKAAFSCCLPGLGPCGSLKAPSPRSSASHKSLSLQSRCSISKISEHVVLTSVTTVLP
Method: as §1, §2, §3, §4

[3] = target: dopamine receptor DRD5 (Homo sapiens, UniProt P21918); experiment: PathHunter β-Arrestin GPCR agonist assay, DRD5; design: DRD5 (Agonist) percent activity: concentration or dose not given beside the values; details: for DRD5 (Agonist) percent activity: agonist mode, dopamine as control
Source text: as §2, §3
Table 2 depicts the results of evaluating the cannabinoid compounds to act as an agonist for the dopamine receptor DRD5. The same experimental procedure as used for HCRTR1 and HCRTR2 agonist testing (Table 1) was followed with the substitution of dopamine as the control for the DRD5 receptor.

[4] = target: T1, HCRTR2; experiment: PathHunter β-Arrestin GPCR antagonist assay, HCRTR2; details: for HCRTR2 (Antagonist) percent inhibition: antagonist mode, agonist challenge at EC80
Method: as §1, §2
(§5) In each of the two antagonist assays, PathHunter® cell lines were removed from a freezer stock and seeded at a volume of 20 μL into white walled, 384-well microplates and incubated at 37° C. Each cell was pre-incubated with an antagonist followed by an agonist challenge at the EC80 concentration. Cells were then diluted to generate a 5× sample in assay buffer. 5 μL of the 5× sample was then added to cells and incubated at 37° C. for 30 minutes. Finally, 5 μL of 6×EC80 agonist in assay buffer were added to the cells and incubated at 37° C. for 90 minutes or 180 minutes. The assay signal was generated through addition of 12.5 μL or 15 μL (50% V/V) of a detection reagent cocktail followed by a one hour incubation time at room temperature. Microplates were read following signal generation with a PerkinElmer Envision™ (PerkinElmer Inc., Waltham, Mass.) for chemiluminescent signal detection. Reactivity was analyzed using the CBIS data analysis suite (ChemInnovation, CA) where RLU refers to the raw measured values. The percent inhibition was calculated using the formula: % Inhibition=100%*(1−mean RLU of test sample−mean RLU of control)/(mean RLU of EC80 control−mean RLU of vehicle control).
as §4

[5] = target: T2, HCRTR1; experiment: PathHunter β-Arrestin GPCR antagonist assay, HCRTR1; details: for HCRTR1 (Antagonist) percent inhibition: antagonist mode, agonist challenge at EC80
Method: as §1, §2, §5, §4

Sequence of dopamine receptor DRD5 (P21918 whole entry): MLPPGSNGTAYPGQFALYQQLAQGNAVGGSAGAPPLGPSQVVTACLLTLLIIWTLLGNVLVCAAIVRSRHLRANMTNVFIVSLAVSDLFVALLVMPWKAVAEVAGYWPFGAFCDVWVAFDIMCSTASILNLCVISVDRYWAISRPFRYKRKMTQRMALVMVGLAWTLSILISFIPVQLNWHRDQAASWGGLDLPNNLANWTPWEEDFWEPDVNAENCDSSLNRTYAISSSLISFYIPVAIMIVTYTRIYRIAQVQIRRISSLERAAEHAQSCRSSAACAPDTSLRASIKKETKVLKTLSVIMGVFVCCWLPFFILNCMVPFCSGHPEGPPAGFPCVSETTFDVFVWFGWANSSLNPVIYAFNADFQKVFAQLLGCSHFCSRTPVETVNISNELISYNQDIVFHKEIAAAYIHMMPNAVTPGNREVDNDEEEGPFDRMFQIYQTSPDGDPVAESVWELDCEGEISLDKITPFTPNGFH

Compound | HCRTR2 (Agonist) percent activity [1] [%] | HCRTR1 (Agonist) percent activity [2] [%] | DRD5 (Agonist) percent activity [3] [%] | antagonist effect on HCRTR2 (in words) [4] | HCRTR2 (Antagonist) percent inhibition [4] [%] | antagonist effect on HCRTR1 (in words) [5] | HCRTR1 (Antagonist) percent inhibition [5] [%] | DRD5 agonist effect (in words) [3]
CCCc1cc(O)c(C/C=C(\C)CCC=C(C)C)c(O)c1C(=O)O [CBGVA, cannabigerovarinic acid] | 1 | 0 | 0 | do not demonstrate meaningful activity | 12 | do not demonstrate meaningful activity | 3 | –
C=C(C)[C@@H]1CCC(C)=C[C@H]1c1c(O)cc(CC)cc1O [CBD-C2, cannabidol-C2] | 1 | 2 | 1 | do not demonstrate meaningful activity | 13 | do not demonstrate meaningful activity | 20 | –
C=C(C)[C@@H]1CCC(C)=C[C@H]1c1c(O)cc(CCCCC)cc1O [CBD, cannabidol] | 5 | 1 | 27 | antagonist effect; also recorded: acted as an antagonist | 85 | antagonist effect; also recorded: acted as an antagonist | 96 | –
CCCCCc1cc2c(c(O)c1C(=O)O)C1C3C(CCC3(C)O2)C1(C)C (stereo not shown) [CBLA, cannabicyclolic acid] | 0 | 2 | 0 | do not demonstrate meaningful activity | 15 | do not demonstrate meaningful activity | 7 | –
CCCCCc1cc(O)c(C/C=C(\C)CCC=C(C)C)c(O)c1C(=O)O [CBGA, cannabigerolic acid] | 1 | 1 | 0 | do not demonstrate meaningful activity | 14 | do not demonstrate meaningful activity | 8 | –
CCCCCc1cc(O)c2c(c1)OC(C)(C)c1ccc(C)cc1-2 [CBN, cannabinol] | 7 | 1 | 3 | antagonist effect; also recorded: acted as an antagonist | 94 | antagonist effect; also recorded: acted as an antagonist | 95 | –
CCCCCc1cc(O)c2c(c1)OC(C)(CCC=C(C)C)C=C2 (stereo not shown) [CBC, cannabichromene] | 3 | 0 | 22 | antagonist effect; also recorded: acted as an antagonist | 96 | antagonist effect; also recorded: acted as an antagonist | 98 | –
C=C(C)[C@@H]1CCC(C)=C[C@H]1c1c(O)cc(CCC)cc1O [CBDV, cannabidivarin] | 0 | 0 | 7 | demonstrate activity against only HCRTR1; also recorded: did not act as antagonists | 18 | demonstrate activity against only HCRTR1; also recorded: acted as antagonists | 61 | –
CCCCc1cc(O)c(CC=C(C)CCC=C(C)C)c(O)c1 [CBG-C4, cannabigerol butyl] | 6 | 4 | 6 | antagonist effect; also recorded: acted as an antagonist | 45 | antagonist effect; also recorded: acted as an antagonist | 84 | –
CCCCc1cc(O)c(C/C=C(\C)CCC=C(C)C)c(O)c1C(=O)O [CBGA-C4, cannabigerolic acid butyl] | 1 | 3 | 0 | do not demonstrate meaningful activity | 10 | do not demonstrate meaningful activity | 2 | –
CCCCCc1cc(O)c2c(c1)OC1(C)CCC3C1C2C3(C)C (stereo not shown) [CBL, cannabicyclol] | 5 | 2 | 37 | antagonist effect; also recorded: acted as an antagonist | 93 | antagonist effect; also recorded: acted as an antagonist | 96 | DRD5 agonists; also recorded: stronger agonist effects
CCCCCc1cc(O)c(C/C=C(\C)CCC=C(C)C)c(O)c1 [CBG, cannabigerol] | 4 | 3 | 9 | antagonist effect; also recorded: acted as an antagonist | 68 | antagonist effect; also recorded: acted as an antagonist | 98 | –
